This note sets out measurements from BindingDB's records for doi:10.1111/cbdd.12609 (Tehran University of Medical Sciences, 2015).

Some results are limits rather than exact numbers.

The target in experiment [1] is Carboxylic ester hydrolase (Equus caballus, UniProt Q9N1N9). Kind of experiment: AChE and BChE Inhibition Assay. Particulars: pH 8; 25 °C. The method, then: (§1) To evaluate in vitro AChE activity, modified Ellman's method was performed using a 96-well plate reader (BioTek ELx808, Highland Park, IL, USA). Each well contained 50 µL potassium phosphate buffer (KH2PO4/K2HPO4, 0.1 M, pH 8), 25 µL sample dissolved in 50% methanol and 50% DMSO, and 25 µL enzyme (final concentration 0.22 U/mL in buffer). They were preincubated for 20 min at room temperature, and then, 125 µL DTNB (3 mM in buffer) was added. […] The IC50 values were determined graphically from inhibition curves (log inhibitor concentration versus percent of inhibition). A control experiment was performed under the same conditions without inhibitor and the blank contained buffer, DMSO, DTNB, and substrate. The described method was also used for BChE inhibition assa

A further experiment addresses Acetylcholinesterase (Electrophorus electricus, UniProt O42275). Kind of experiment: AChE and BChE Inhibition Assay. Particulars: pH 8; 25 °C. Here is the method:
as §1

Sequence of Carboxylic ester hydrolase (Q9N1N9 whole entry): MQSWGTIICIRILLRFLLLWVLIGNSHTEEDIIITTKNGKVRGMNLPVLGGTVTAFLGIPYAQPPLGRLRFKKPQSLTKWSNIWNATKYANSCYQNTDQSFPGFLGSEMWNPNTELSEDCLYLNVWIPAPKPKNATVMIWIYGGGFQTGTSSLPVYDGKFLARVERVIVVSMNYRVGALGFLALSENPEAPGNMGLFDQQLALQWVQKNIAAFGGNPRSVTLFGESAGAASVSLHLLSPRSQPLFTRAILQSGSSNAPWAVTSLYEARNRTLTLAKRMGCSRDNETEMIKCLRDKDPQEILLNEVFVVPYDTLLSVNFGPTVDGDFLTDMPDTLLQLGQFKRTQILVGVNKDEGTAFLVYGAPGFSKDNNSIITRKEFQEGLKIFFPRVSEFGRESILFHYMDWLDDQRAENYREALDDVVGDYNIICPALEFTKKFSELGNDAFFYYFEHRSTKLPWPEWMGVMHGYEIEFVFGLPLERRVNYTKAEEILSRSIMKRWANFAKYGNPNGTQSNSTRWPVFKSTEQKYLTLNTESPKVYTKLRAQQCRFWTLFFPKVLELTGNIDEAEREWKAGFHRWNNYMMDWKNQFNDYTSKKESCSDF
Sequence of Acetylcholinesterase (O42275 whole entry): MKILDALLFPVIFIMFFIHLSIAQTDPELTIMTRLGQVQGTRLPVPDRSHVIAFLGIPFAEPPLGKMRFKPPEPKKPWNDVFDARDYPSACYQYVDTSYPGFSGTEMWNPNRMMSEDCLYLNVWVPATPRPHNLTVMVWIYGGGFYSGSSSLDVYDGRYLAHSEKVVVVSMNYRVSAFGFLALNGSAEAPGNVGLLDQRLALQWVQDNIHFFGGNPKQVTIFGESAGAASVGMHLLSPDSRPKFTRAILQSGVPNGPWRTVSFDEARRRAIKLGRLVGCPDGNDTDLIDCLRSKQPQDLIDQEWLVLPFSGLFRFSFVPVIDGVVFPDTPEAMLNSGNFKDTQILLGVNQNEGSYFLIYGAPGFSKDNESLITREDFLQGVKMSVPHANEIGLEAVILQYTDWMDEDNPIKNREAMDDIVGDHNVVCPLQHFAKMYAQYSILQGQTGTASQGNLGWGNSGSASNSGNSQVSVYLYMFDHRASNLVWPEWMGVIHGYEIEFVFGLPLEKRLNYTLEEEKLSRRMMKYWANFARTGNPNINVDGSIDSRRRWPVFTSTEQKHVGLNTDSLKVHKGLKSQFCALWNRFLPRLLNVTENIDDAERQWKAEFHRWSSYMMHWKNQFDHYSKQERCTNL

As to `O=c1c2ccccc2n(Cc2cn(Cc3nc(-c4ccc(Br)cc4)no3)nn2)c2ccccc12` [10-((1-((3-(4-Bromophenyl)-1,2,4-oxadiazol-5-yl)methyl)-1H-1,2,3-triazol-4-yl)methyl)acridin-9(10H)-one (10d)], the figures for the IC50 (in experiment [1]; at Acetylcholinesterase) were greater than 100 µM and 67.4 µM, respectively.
For `Cc1ccc(-c2noc(Cn3cc(Cn4c5ccccc5c(=O)c5cc(Cl)ccc54)nn3)n2)cc1` [2-Chloro-10-((1-((3-(p-tolyl)-1,2,4-oxadiazol-5-yl)methyl)-1H-1,2,3-triazol-4-yl)methyl)acridin-9(10H)-one (10l)], in that order: greater than 100 µM and greater than 100 µM.
Consider `Cc1ccc(-c2noc(Cn3cc(Cn4c5ccccc5c(=O)c5ccccc54)nn3)n2)cc1` [10-((1-((3-(p-Tolyl)-1,2,4-oxadiazol-5-yl)methyl)-1H-1,2,3-triazol-4-yl)methyl)acridin-9(10H)-one (10a)], for which the half-inhibitory concentration (IC50) – broadly, the concentration needed to halve the response being measured – in experiment [1] is greater than 100 µM; on Acetylcholinesterase it was 49 µM.
The like results for `O=c1c2ccccc2n(Cc2cn(Cc3nc(-c4ccc(Cl)cc4)no3)nn2)c2ccccc12` [10-((1-((3-(4-Chlorophenyl)-1,2,4-oxadiazol-5-yl)methyl)-1H-1,2,3-triazol-4-yl)methyl)acridin-9(10H)-one (10c)] were, in that order, 88.9 µM and 24.7 µM.
On to `COc1ccc(-c2noc(Cn3cc(Cn4c5ccccc5c(=O)c5cc(OC)ccc54)nn3)n2)cc1` [2-Methoxy-10-((1-((3-(4-methoxyphenyl)-1,2,4-oxadiazol-5-yl)methyl)-1H-1,2,3-triazol-4-yl)methyl)acridin-9(10H)-one (10j)], for which the 50% inhibitory concentration (IC50) (in experiment [1]; against Acetylcholinesterase) was greater than 100 µM each time.
As for `Cc1ccc2c(c1)c(=O)c1ccccc1n2Cc1cn(Cc2nc(-c3ccc(Cl)cc3)no2)nn1` [10-((1-((3-(4-Chlorophenyl)-1,2,4-oxadiazol-5-yl)methyl)-1H-1,2,3-triazol-4-yl)methyl)-2-methylacridin-9(10H)-one (10h)], the 50% inhibitory concentration (IC50) (in experiment [1]; on Acetylcholinesterase) was greater than 100 µM throughout.
For `O=c1c2ccccc2n(Cc2cn(Cc3nc(-c4ccc(Cl)cc4)no3)nn2)c2ccc(Cl)cc12` [2-Chloro-10-((1-((3-(4-chlorophenyl)-1,2,4-oxadiazol-5-yl)methyl)-1H-1,2,3-triazol-4-yl)methyl)acridin-9(10H)-one (10n)], the values for the half-maximal inhibitory concentration (IC50) (in experiment [1]; against Acetylcholinesterase) were greater than 100 µM and 44.9 µM, respectively.
`O=c1c2ccccc2n(Cc2cn(Cc3nc(-c4ccc(Cl)cc4)no3)nn2)c2ccc(Br)cc12` [2-Bromo-10-((1-((3-(4-chlorophenyl)-1,2,4-oxadiazol-5-yl)methyl)-1H-1,2,3-triazol-4-yl)methyl)acridin-9(10H)-one (10p)]: the IC50 (in experiment [1]; at Acetylcholinesterase) was greater than 100 µM each time.
Consider `COc1ccc(-c2noc(Cn3cc(Cn4c5ccccc5c(=O)c5ccccc54)nn3)n2)cc1` [10-((1-((3-(4-Methoxyphenyl)-1,2,4-oxadiazol-5-yl)methyl)-1H-1,2,3-triazol-4-yl)methyl)acridin-9(10H)-one (10b)], for which the half-inhibitory concentration (IC50) in experiment [1] was greater than 100 µM; against Acetylcholinesterase, 11.5 µM.
`COc1ccc(-c2noc(Cn3cc(Cn4c5ccccc5c(=O)c5cc(Br)ccc54)nn3)n2)cc1` [2-Bromo-10-((1-((3-(4-methoxyphenyl)-1,2,4-oxadiazol-5-yl)methyl)-1H-1,2,3-triazol-4-yl)methyl)acridin-9(10H)-one (10o)]: the half-maximal inhibitory concentration (IC50) (in experiment [1]; at Acetylcholinesterase) was greater than 100 µM in each case.
`COc1ccc2c(c1)c(=O)c1ccccc1n2Cc1cn(Cc2nc(-c3ccc(C)cc3)no2)nn1` [2-Methoxy-10-((1-((3-(p-tolyl)-1,2,4-oxadiazol-5-yl)methyl)-1H-1,2,3-triazol-4-yl)methyl)acridin-9(10H)-one (10i)]: the 50% inhibitory concentration (IC50) (in experiment [1]; at Acetylcholinesterase) was greater than 100 µM in each case.
For the molecule `COc1ccc(-c2noc(Cn3cc(Cn4c5ccccc5c(=O)c5cc(Cl)ccc54)nn3)n2)cc1` [2-Chloro-10-((1-((3-(4-methoxyphenyl)-1,2,4-oxadiazol-5-yl)methyl)-1H-1,2,3-triazol-4-yl)methyl)acridin-9(10H)-one (10m)], the IC50 (in experiment [1]; against Acetylcholinesterase) was greater than 100 µM each time.
Take `COc1ccc(-c2noc(Cn3cc(Cn4c5ccccc5c(=O)c5cccc(Cl)c54)nn3)n2)cc1` [4-Chloro-10-((1-((3-(4-methoxyphenyl)-1,2,4-oxadiazol-5-yl)methyl)-1H-1,2,3-triazol-4-yl)methyl)acridin-9(10H)-one (10g)]: the IC50 (in experiment [1]; against Acetylcholinesterase) was greater than 100 µM throughout.
As for `COc1cccc2c(=O)c3ccccc3n(Cc3cn(Cc4nc(-c5ccc(C)cc5)no4)nn3)c12` [4-Methoxy-10-((1-((3-(p-tolyl)-1,2,4-oxadiazol-5-yl)methyl)-1H-1,2,3-triazol-4-yl)methyl)acridin-9(10H)-one (10e)], the IC50 (in experiment [1]; on Acetylcholinesterase) was greater than 100 µM each time.
For `COc1ccc(-c2noc(Cn3cc(Cn4c5ccccc5c(=O)c5cccc(OC)c54)nn3)n2)cc1` [4-Methoxy-10-((1-((3-(4-methoxyphenyl)-1,2,4-oxadiazol-5-yl)methyl)-1H-1,2,3-triazol-4-yl)methyl)acridin-9(10H)-one (10f)], the IC50 (in experiment [1]; against Acetylcholinesterase) was greater than 100 µM in each case.
Turning to `COc1ccc2c(c1)c(=O)c1ccccc1n2Cc1cn(Cc2nc(-c3ccc(Cl)cc3)no2)nn1` [10-((1-((3-(4-Chlorophenyl)-1,2,4-oxadiazol-5-yl)methyl)-1H-1,2,3-triazol-4-yl)methyl)-2-methoxyacridin-9(10H)-one (10k)], the IC50 in experiment [1] is greater than 100 µM; against Acetylcholinesterase, 77.8 µM.
